Assay [1] concerns 143B.TK−K7gm cells. Put plainly: Formation of megamitochondria in drug-treated cells (fluorescence/confocal microscopy of EGFP-Mito). Format: cell-based, Human. How it is done:
(A) 24 h after seeding 143B.TK^−K7gm cells were incubated with 10 μM CCCP (A A1), 10 μM valinomycin (A A2, B) or 1 μM nigericin (A A3) for 18 h.
(§1) (A) 143B.TK^−K7gm cells stained with EGFP-Mito were treated with 4 μM cytochalasin B (A1, A2, B1, B2) at different cultivation times for 9-15 hours or an equivalent amount of solvent as control (A3, A4, B3, B4). Staining of actin cytoskeleton was achieved by Alexa Fluor […] phalloidin in fixed cells (A2, B2, A4, B4). Arrow heads indicate round areas in the cytoplasm observable by actin staining after 62 hours cultivation time.
143B.TK^−K7gm cells were treated with 10 μM nocodazol at different cultivation times for 9-15 hours (A1, A2, B1, B2) or as control with an equivalent amount solvent (A3, A4, B3, B4). The morphology of mitochondria is shown by in vivo EGFP-Mito-staining in the images A1, B1, C1, A3, B3, C3. The staining of tubulin cytoskeleton was performed by an antibody against alpha-tubulin and a Cy3-coupled secondary antibody in fixed cells (A2, B2, A4, B4). Calibration bars correspond to 10 μm.
(§2) Drugs (final concentrations 6-10 μM nocodazol, 2.4-4 μM cytochalasin B, 10 μM CCCP, 10 μM valinomycin and 1 μM nigericin) were added to standard culture medium at different stages of megamitochondria development.
(§3) To avoid a cross talk in excitation of multiple stained compounds always a sequential scanning mode was used in confocal microscopy.
To investigate the influence of the mitochondrial membrane potential on the formation and back formation of the megamitochondria 143B.TK^−K7gm cells were incubated with 10 μM CCCP (H^+ ionophore), 10 μM valinomycin (K^+ selective ionophore) and 1 μM nigericin (selective electron neutral K^+/H^+ exchange) (FIG. 4).
(§4) To observe the influence of the tubulin or actin cytoskeleton, respectively, on the formation of megamitochondria 143B.TK^−K7 gm cells were incubated with 10 μM nocodazol or […] cytochalasin B for 9-15 hours.

Assay [2] has as its system 143B.TK−K7gm cells with megamitochondria. In words: Back-formation of megamitochondria after exchange of acidic medium in drug-treated cells. In kind it is cell-based, Human. Conditions: fresh medium also with drug; for back-formation of megamitochondria (mitochondrial morphology after medium exchange): 10 μM CCCP, 10 μM valinomycin or 1 μM nigericin for 30 minutes, analysed 60 minutes after medium exchange; for back-formation of megamitochondria: 6 μM nocodazol or 2.4 mM cytochalasin B for 3 hours, observed one and three hours after medium exchange. How it is done: (C) 143B.TK^−K7gm cells with megamitochondria were incubated with 10 μM CCCP (C A1, B1), 10 μM valinomycin (C A2, B2) or 1 μM nigericin (C A3, B3) for 30 minutes. 60 Minutes after medium exchange (ME) the mitochondrial morphology was analysed. Untreated controls are shown in A A4 and C A4, B4. Calibration marks correspond to 10 μm.
(B) The influence of the actin cytoskeleton on the back-formation of megamitochondria in 143B.TK^−K7gm cells was tested by treatment with 2.4 μM cytochalasin B (A1, A2, C1, D1) or an an equivalent amount of solvent as control (B1, B2, C2, D2) for 3 hours. Mitochondrial morphology was analyzed one (C1, C2) or three hours (D1, D2) after medium exchange. Staining of action cytoskeleton was carried out by Alexa Fluor […] phalloidin in fixed cells (A2, B2).
143B.TK^−K7gm cells with megamitochondria were incubated for 3 hours with 6 μM nocodazol (A1, A2, C1, D1) or as control with an equivalent amount solvent (B1, B2, C2, D2). The analysis of mitochondrial changes in structure were carried out 1 hour (C1, C2) or 3 hours (D1, D2) after the exchange of acidic medium. Arrow heads indicate abnormal ring shaped mitochondrial structures persisting for at least 3 hours. Calibration bars correspond to 10 μm.
as §2, §3
To investigate the influence of the different chemicals on the back-formation of megamitochondria the cells were incubated with indicated concentrations of CCCP, valinomycin and nigericin for 30 minutes (FIG. 4C).
The influence of tubulin and actin cytoskeleton inhibition on back-formation of megamitochondria was performed with 143B.TK^− K7 gm cells with megamitochondria 3 hours after incubating the cells with 6 μM nocodazol or […] cytochalasin B. After changing the used acidic medium and its replacement by fresh medium also completed by the drugs structural changes of mitochondria were observed one hour and three hours later.

The next assay relates to 143B.TK−K7 cells. In words: Mitochondrial membrane potential by JC-1 staining (confocal microscopy). Format: cell-based, Human. Conditions: 10 μM CCCP for 30 minutes before JC-1; 24 and 62 hours cultivation time. How it is done: Documentation at 24 hours (A1-A3, B1-B3) and 62 hours (C1-C3, D1-D3) cultivation time by JC-1-staining. The red fluorescence of J-aggregates (A1, B1, C1, D1) as well as the green monomer form (A2, B2, C2, D2) were analysed simultaneously by excitation wavelength of 488 nm. Images A3, B3, C3, D3 show overlays. Calibration bars correspond to 10 μm.
To measure differences in mitochondrial membrane potential between the various stages of megamitochondria formation and control cells the dual emission of the potentiometric dye JC-1 was observed. The cells either were incubated directly with 3 μM JC-1 diluted in the standard culture medium and filtered once with 0.2 μm syringe filter for 30 min at 37° C. or first treated with CCCP (final concentration 10 μM) for 30 min for the comparison of cells without membrane potential. The cells were viewed in vivo with the inverse confocal laser scanning microscope (simultaneous excitation of red and green fluorescence by 488 nm wavelength) to observe local differences in the mitochondrial membrane potential.
To determine the mitochondrial membrane potential during the formation of megamitochondria 143B.TK^−K7 cells were either directly stained with JC-1 […] or incubated with […] CCCP for 30 minutes before. […]

Another assay concerns 143B.TK−gm cells. In words: Induction of megamitochondria by changes of culture medium. In kind it is cell-based, Human. Conditions: medium with HCl or lactic acid (pH 6.7-5.3) or 30-180 mM sodium lactate (pH 7.4 maintained); one hour.
Assay [3] relates to 143B.TK−K7gm cells with megamitochondria. In words: Back-formation of megamitochondria by changes of culture medium. The note with it: one hour. Format: cell-based, Human.
Method: Similar experiments were carried out to investigate the back-formation of megamitochondria (FIG. 9). To this end, 143B.TK^−K7 gm cells with megamitochondria were incubated in medium complemented with different additions. Changes of pH value were reached by the addition of 0.04-0.2 mM NaOH into the used culture medium as well as by the addition of HCl and lactic acid, respectively, of values 7.0-5.6 in fresh culture medium. Moreover, the influence of high concentrations of sodium lactate on the back-formation of megamitochondria was analysed by adding 20-210 mM sodium lactate, pH 7.4 into fresh medium without changing the pH value. Treatment of cells with different media was performed for one hour, thereafter the mitochondrial morphology was analysed by fluorescence microscopy.
Another assay has as its system HeLa cells. Put plainly: Induction of megamitochondria by changes of culture medium. In kind it is cell-based. The note with it: medium with HCl or lactic acid (pH 6.7-5.3) or 30-180 mM sodium lactate (pH 7.4 maintained); one hour.
Assay [4] deals with 143B.TK−K7gm cells. Described as above. Format: cell-based, Human. Conditions: medium with HCl or lactic acid (pH 6.7-5.3) or 30-180 mM sodium lactate (pH 7.4 maintained); one hour.
Method: (§5) The induction of megamitochondria formation was done by the transfer of acidic medium from 143B.TK^− K7 ρ^0 cells and by an artificial acidification of fresh medium with lactic acid, pH 6.0-6.3. Additional changes of culture medium were performed by an acidification of the medium with HCl, addition of 30-180 mM sodium lactate and 1.3-2.0 mM NaOH.
(§6) To test whether megamitochondria can be induced by extrinsic changes of pH value or lactic acid concentration in the culture medium 143B.TK^−K7gm, 143B.TK^−gm and HeLa were incubated with medium complemented with HCl and lactic acid, respectively (pH 6.7-5.3). Additionally, the influence of high concentrations of sodium lactate (30-180 mM) on the megamitochondria formation was determined without changing the pH. A pH value of 6.7-6.8 and a lactate concentration of 30 mM corresponds to the measured values in the analysed cultivation medium of 143B.TK^−K7 cells. Incubation of cells was carried out for one hour with subsequent analyses of mitochondrial morphology in vivo.
A further assay concerns actin cytoskeleton. In words: Staining of actin cytoskeleton by phalloidin in fixed cells. Format: cell-based, Human. The note with it: 4 mM cytochalasin B for 9-15 hours, 143B.TK−K7gm cells. How it is done: as §1
For detection of the actin cytoskeleton cells on cover slips treated as indicated were fixed with 3.7% formaldehyde in PBS for 10 min at room temperature and after three washes in PBS for 5 min permeabilized with 0.1% Triton X-100 in PBS for 5 min. After additional washing steps with PBS (5 min) cells were blocked with 1% BSA in PBS for 30 min at room temperature and incubated with 1 unit (5 μl) Alexa Fluor 546 Phalloidin in 1% BSA in PBS for 20 min at room temperature. After washing the cells three times with PBS for 7 min, the cover slips were mounted with Mowiol and analysed with the confocal microscope.
as §4

Another assay deals with tubulin polymerisation. Put plainly: Immunocytochemical staining of tubulin cytoskeleton with antibody against alpha-tubulin. In kind it is cell-based, Human. The note with it: 10 μM nocodazol for 9-15 hours, 143B.TK−K7gm cells.
The mark [5] stands for this setting: 10 μM CCCP, 10 μM valinomycin or 1 μM nigericin for 18 h, 24 h after seeding.
[6] abbreviates: 10 μM nocodazol or 4 mM cytochalasin B for 9-15 hours.

Entries after “also recorded” stand apart in the source; their conditions may differ. Structures can show the parent of a compound that is named as a salt.

Method for 143B.TK−gm cells: as §5, §6
Method for HeLa cells: as §5, §6
Method for tubulin polymerisation: 143B.TK^−K7gm cells were treated with 10 μM nocodazol at different cultivation times for 9-15 hours (A1, A2, B1, B2) or as control with an equivalent amount solvent (A3, A4, B3, B4). […] The staining of tubulin cytoskeleton was performed by an antibody against alpha-tubulin and a Cy3-coupled secondary antibody in fixed cells (A2, B2, A4, B4).
Cells grown on cover slips were treated as indicated, fixed with methanol (−20° C.) for 5 min and permeabilized with 0.2% Triton X-100 in PBS for 5 min at room temperature. After washing three times with PBS (5 min), the blocking reaction was performed with 100 mM glycine in PBS for 10 min following 3% BSA in PBS for 30 min at room temperature.
Subsequently cover slips were incubated with mouse anti-alpha tubulin polyclonal primary antibody diluted 1:50 in 1% BSA in PBS at 4° C. over night. After washing the cells three times with PBS (5 min), the cover slips were incubated with Cy3-conjugated goat secondary antibody in 10% goat serum in PBS for 1 h at room temperature. The cells were washed three times with PBS (7 min) prior to mounting in Mowiol and analysed by fluorescence microscopy.

Consider `N#CC(C#N)=NNc1cccc(Cl)c1` [CCCP], for which the formation of megamitochondria entry in the assay on 143B.TK−K7gm cells [1] (setting [5]) is “inhibited”. Besides, the “back-formation of megamitochondria (mitochondrial morphology after medium exchange)” value in [2] was “comparable to the control cells”. The “mitochondrial membrane potential (JC-1 red/green fluorescence)” value with 143B.TK−K7 cells is recorded as “the red fluorescence was clearly less distinct”.
For `Cl` [HCl], the induction of megamitochondria result in the assay with 143B.TK−gm cells, in the assay with HeLa cells and in the assay on 143B.TK−K7gm cells [4] was “not possible” throughout. Moreover, the back-formation of megamitochondria entry in assay [3] (fresh medium acidified with HCl, pH 6.0) is on record as “did not change their form”; in assay [3] (fresh medium acidified with HCl, pH 7.0), “formed back to a tubular network”.
As to `[Na+].[OH-]` [NaOH], the back-formation of megamitochondria result in [3] (1.3 mM NaOH added into the acidic medium) was “did not lead to the back-formation of megamitochondria; also recorded: did not lead to the back formation of megamitochondria”; in assay [3] (2.0 mM NaOH added into the acidic medium), “resulted in a change in mitochondrial morphology from spherical forms to tubules and network-like structures; also recorded: sufficient to induce the back-formation of megamitochondria”.
`C=C1[C@@H](C)[C@H]2[C@H](Cc3ccccc3)NC(=O)[C@]23OC(=O)/C=C/[C@H](O)CCC[C@@H](C)C/C=C/[C@H]3[C@@H]1O` [cytochalasin B]: in the assay with 143B.TK−K7gm cells [1] (setting [6]), the formation of megamitochondria result is “prevented formation of megamitochondria”. Also, the “effectiveness of drug treatment on actin cytoskeleton (phalloidin staining)” value in the assay with actin cytoskeleton is recorded as “confirming the effectiveness of drug treatment”. Besides, in [2], the back-formation of megamitochondria result is given as “severe influence on megamitochondria back-formation”.
Consider `CC(O)C(=O)O` (centres unmarked) [lactic acid], for which the induction of megamitochondria result in the assay with 143B.TK−gm cells, in the assay with HeLa cells and with 143B.TK−K7gm cells [4] was “led to the formation of megamitochondria” throughout. The back-formation of megamitochondria entry in assay [3] (fresh medium acidulated with lactic acid, pH 6.8) is reported as “the spherical mitochondria changed to a tubular network”; in assay [3] (fresh medium acidulated with lactic acid, pH 7.0), “resulted in the back-formation of megamitochondria”.
For `CO[C@@H]1C[C@@H](C[C@H]2CC[C@H](C)[C@H]([C@@H](C)C(=O)O)O2)O[C@]2(O[C@](C)([C@H]3CC[C@@](C)([C@@H]4O[C@@H]([C@H]5O[C@@](O)(CO)[C@H](C)C[C@@H]5C)C[C@@H]4C)O3)C[C@H]2C)[C@@H]1C` [nigericin], the formation of megamitochondria result with 143B.TK−K7gm cells [1] (setting [5]) is “inhibited”. Moreover, the “back-formation of megamitochondria (mitochondrial morphology after medium exchange)” value in assay [2] is reported as “comparable to the control cells”.
`COC(=O)Nc1nc2ccc(C(=O)c3cccs3)cc2[nH]1` [nocodazol]: the “inhibition of tubulin polymerisation (alpha-tubulin staining)” value in the assay on tubulin polymerisation was “Complete inhibition of tubulin polymerisation”. In the assay on 143B.TK−K7gm cells [1] (setting [6]), the formation of megamitochondria result was “no influence of the tubulin cytoskeleton on the formation of megamitochondria”. For the same molecule, the back-formation of megamitochondria result in assay [2] was “only minor influence on back-formation of megamitochondria”.
Take `CC(O)C(=O)[O-].[Na+]` (centres unmarked) [sodium lactate]: the induction of megamitochondria entry with 143B.TK−gm cells, in the assay on HeLa cells and in the assay on 143B.TK−K7gm cells [4] was “not possible” throughout. Moreover, the back-formation of megamitochondria entry in assay [3] (fresh medium with 20-210 mM sodium lactate, pH 7.4) is reported as “led to the back-formation of megamitochondria in all used concentrations”.
Regarding `CC(C)[C@@H]1NC(=O)[C@H](C)OC(=O)[C@@H](C(C)C)NC(=O)[C@@H](C(C)C)OC(=O)[C@H](C(C)C)NC(=O)[C@H](C)OC(=O)[C@@H](C(C)C)NC(=O)[C@@H](C(C)C)OC(=O)[C@H](C(C)C)NC(=O)[C@H](C)OC(=O)[C@@H](C(C)C)NC(=O)[C@@H](C(C)C)OC1=O` [valinomycin], in the assay with 143B.TK−K7gm cells [1] (setting [5]), the formation of megamitochondria result is on record as “led to the formation of megamitochondria with diameters exceeding the control cells”. In [2], the “back-formation of megamitochondria (mitochondrial morphology after medium exchange)” value is listed as “inhibited the back-formation of megamitochondria”.

The record behind these values is patent US20110166195A1, “METHOD FOR THE FORMATION OF MEGAMITOCHONDRIA” (priority 2008, published 2011).
